Laboratory results: patent publication US20240217990A1 (Gilead Sciences, Inc., priority 2021, published 2024)
pEC50: −log10 of the molar value.

Key:
[1] = molecular target: T1, TLR7 (Homo sapiens, UniProt Q9NYK1); assay: TLR7 human PBMC cell-based assay (antagonist, GS-986 stimulated cytokine release); details: human PBMCs; TLR7 agonist GS-986 400 nM, 6 hours; cytokines (IL-6 and IFNα) in supernatant; read-out: TLR-7 EC50
T1 construct: Human peripheral blood mononuclear cells (PBMCs) consist of lymphocytes, monocytes and dendritic cells that express TLR7, TLR8 and TLR9; endogenous in cells; host or cells: cryopreserved human PBMCs from healthy donors
T1 sequence (Q9NYK1 27-1049): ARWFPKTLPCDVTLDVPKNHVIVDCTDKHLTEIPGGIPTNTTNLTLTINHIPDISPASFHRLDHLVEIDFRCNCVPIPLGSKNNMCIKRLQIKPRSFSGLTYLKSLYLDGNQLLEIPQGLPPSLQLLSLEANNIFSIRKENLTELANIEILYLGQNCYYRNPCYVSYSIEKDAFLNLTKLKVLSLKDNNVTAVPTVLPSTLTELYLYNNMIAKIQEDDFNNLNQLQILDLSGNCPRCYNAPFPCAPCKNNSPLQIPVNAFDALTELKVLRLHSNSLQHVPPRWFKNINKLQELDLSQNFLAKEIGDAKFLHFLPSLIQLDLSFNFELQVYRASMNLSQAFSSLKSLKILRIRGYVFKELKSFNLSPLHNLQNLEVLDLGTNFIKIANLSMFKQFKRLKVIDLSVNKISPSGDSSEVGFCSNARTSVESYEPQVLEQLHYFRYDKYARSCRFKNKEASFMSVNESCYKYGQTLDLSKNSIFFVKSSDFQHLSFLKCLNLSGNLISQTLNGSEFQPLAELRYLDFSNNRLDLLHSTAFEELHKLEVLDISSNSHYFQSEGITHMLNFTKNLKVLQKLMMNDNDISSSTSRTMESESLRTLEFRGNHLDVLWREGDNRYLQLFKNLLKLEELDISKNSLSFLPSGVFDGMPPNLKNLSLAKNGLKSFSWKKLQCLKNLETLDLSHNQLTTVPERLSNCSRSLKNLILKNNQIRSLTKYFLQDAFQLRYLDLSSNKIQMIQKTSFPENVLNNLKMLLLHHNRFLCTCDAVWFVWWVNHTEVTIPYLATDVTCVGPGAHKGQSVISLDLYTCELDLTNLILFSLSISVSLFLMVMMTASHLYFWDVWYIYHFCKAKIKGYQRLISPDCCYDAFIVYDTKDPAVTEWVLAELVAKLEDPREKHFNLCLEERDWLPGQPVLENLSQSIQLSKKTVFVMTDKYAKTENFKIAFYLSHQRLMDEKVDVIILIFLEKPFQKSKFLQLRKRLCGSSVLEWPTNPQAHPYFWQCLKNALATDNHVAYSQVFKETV
From the text: (§1) Human peripheral blood mononuclear cells (PBMCs) consist of lymphocytes, monocytes and dendritic cells that express TLR7, TLR8 and TLR9. These cells respond to TLR7, TLR8 and TLR9 ligand stimulation and produce cytokines and chemokines in vitro and in vivo. Human PBMCs are therefore suitable to be used in a cell-based assay to assess the in vitro potency of a TLR 7, 8, and/or 9 antagonist. The result is expected to be more translatable to the pharmacodynamics response in vivo than cell line-based assays.
Cryopreserved human PBMCs from healthy donors were thawed and resuspended in RPMI-1640 media with L-glutamine (Corning) supplemented with 10% Fetal Bovine Serum (Hyclone) and 1× Penicillin-Streptomycin (Corning). After counting, the cell density was adjusted to 2 million cells/ml and incubated for 1 hour at 37° C., 5% CO2 for recovery. Following the recovery, the cells were plated by adding 50 μl per well (100,000 cells) to 384-well cell culture plates (Greiner) containing 250 nl of test antagonists in 100% DMSO per well, in a 10 points dose response in quadruplicates. PBMCs were incubated in the presence of test antagonists for one hour at 37° C., 5% CO2 before being stimulated with a TLR7 or TLR9agonist. GS-986 (Gilead Sciences) was used as the TLR7 agonist at a final concentration of 400 nM. ODN-2216 (InvivoGen) was used as the TLR9 agonist at a final concentration of 3 μM. PBMCs were incubated in the presence of the test antagonist and the TLR7 (or TLR9) agonist for an additional 6 hours at 37° C., 5% CO2. At the end of the incubation, the cell culture plates were centrifuged at 500 g for 5 min, and the cell culture supernatant was collected. The level of cytokines (IL-6 and IFNα) in the supernatant was measured by electrochemiluminescence immunoassays (Mesoscale Discovery) following manufacturer's recommended protocols. The level of cytokine measured was plotted against the test antagonist concentration and fitted to a sigmoidal function to determine the EC50, which are shown below in Table 11.

[2] = molecular target: T2, TLR8 (Homo sapiens, UniProt Q9NR97); assay: TLR8 human PBMC cell-based assay (antagonist, Compound A stimulated cytokine release); details: human PBMCs; TLR8 agonist Compound A 800 nM, 6 hours; cytokines (TNFa and IL 12p40) in supernatant; read-out: TLR-8 EC50
T2 construct: Human peripheral blood mononuclear cells (PBMCs) consist of lymphocytes, monocytes and dendritic cells that express TLR7, TLR8 and TLR9; endogenous in cells; host or cells: cryopreserved human PBMCs from healthy donors
T2 sequence (Q9NR97 27-1041): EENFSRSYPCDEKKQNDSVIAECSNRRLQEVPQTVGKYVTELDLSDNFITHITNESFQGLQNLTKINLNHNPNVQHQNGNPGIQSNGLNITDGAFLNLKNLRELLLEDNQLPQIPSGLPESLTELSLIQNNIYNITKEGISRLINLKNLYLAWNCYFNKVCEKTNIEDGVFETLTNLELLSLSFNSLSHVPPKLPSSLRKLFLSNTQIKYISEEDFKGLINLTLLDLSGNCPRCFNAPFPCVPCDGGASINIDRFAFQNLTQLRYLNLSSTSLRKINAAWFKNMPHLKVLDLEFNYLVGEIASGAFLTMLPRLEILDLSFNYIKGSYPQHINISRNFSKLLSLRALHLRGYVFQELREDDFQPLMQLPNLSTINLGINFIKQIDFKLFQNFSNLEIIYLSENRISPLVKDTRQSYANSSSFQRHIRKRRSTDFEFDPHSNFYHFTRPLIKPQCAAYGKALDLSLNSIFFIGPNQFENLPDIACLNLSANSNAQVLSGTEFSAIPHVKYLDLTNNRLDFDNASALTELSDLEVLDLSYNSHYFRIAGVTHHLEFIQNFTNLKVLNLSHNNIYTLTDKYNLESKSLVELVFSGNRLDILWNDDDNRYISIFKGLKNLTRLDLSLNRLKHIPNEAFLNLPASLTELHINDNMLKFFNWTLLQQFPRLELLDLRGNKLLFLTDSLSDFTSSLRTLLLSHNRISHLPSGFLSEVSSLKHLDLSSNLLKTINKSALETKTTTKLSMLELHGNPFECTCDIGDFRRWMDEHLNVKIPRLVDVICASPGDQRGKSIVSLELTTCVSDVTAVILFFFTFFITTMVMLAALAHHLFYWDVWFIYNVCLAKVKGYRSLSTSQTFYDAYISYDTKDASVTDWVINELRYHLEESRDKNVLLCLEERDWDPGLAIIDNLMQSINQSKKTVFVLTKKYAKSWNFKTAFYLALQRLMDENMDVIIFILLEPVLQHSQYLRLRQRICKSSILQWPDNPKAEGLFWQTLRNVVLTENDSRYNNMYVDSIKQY
From the text: as §1
Cryopreserved human PBMCs from healthy donors were thawed and resuspended in RPMI-1640 media with L-glutamine (Corning) supplemented with 10% Fetal Bovine Serum (Hyclone) and 1X Penicillin-Streptomycin (Corning). After counting, the cell density was adjusted to 2 million cells/ml and incubated for 1 hour at 37° C., 5% CO2 for recovery. Following the recovery, the cells were plated by adding 50 μl per well (100,000 cells) to 384-well cell culture plates (Greiner) containing 250 nl of test antagonists in 100% DMSO per well, in a 10 points dose response in quadruplicates. PBMCs were incubated in the presence of antagonists for one hour at 37° C., 5% CO2 before being stimulated with TLR8 agonist. Compound A (Gilead Sciences, U.S. Pat. No. 10,285,990) was used as the TLR8 agonist at a final concentration of 800 nM. PBMCs were incubated in the presence of antagonist and the TLR8 agonist for an additional 6 hours at 37° C., 5% CO2. At the end of the incubation, the cell culture plates were centrifuged at 500 g for 5 min, and the cell culture supernatant was collected. The level of cytokines (TNFa and IL 12p40) in the supernatant was measured by electrochemiluminescence immunoassays (Mesoscale Discovery) following manufacturer's recommended protocols. The level of cytokine measured was plotted against the antagonist concentration and fitted to a sigmoidal function to determine the EC50, which are shown below in Table 11.

Row | pEC50 [1] | pEC50 [2] | SMILES
1 | 9.02 | 7.77 | Cc1cc(-c2[nH]c3cc(C4C5CCC4CN(CC(N)=O)C5)sc3c2C(C)C)cn2ncnc12 (centres unmarked) [Example 309, 2-(8-(6-isopropyl-5-(8-methyl-[1,2,4]triazolo[1,5-a]pyridin-6-yl)-4H-thieno[3,2-b]pyrrol-2-yl)-3-azabicyclo[3.2.1]octan-3-yl)acetamide]
2 | 8.62 | 8.19 | Cc1cc(-c2[nH]c3cc(C(=O)N(C)[C@@H]4CCCNC4)sc3c2C(C)C)cn2ncnc12 [Example 153]
3 | 8.60 | 7.80 | Cc1cc(-c2[nH]c3cc(C(=O)N4CC5(CCNCC5)C4)sc3c2C(C)C)cn2ncnc12 [Example 126]
4 | 7.43 | 8.32 | Cc1c(-c2[nH]c3cc(CN4CCC(O)(C(F)(F)F)CC4)sc3c2C(C)C)cn2ncnc2c1C [Example 267]
5 | 9.22 | 8.19 | Cc1cc(-c2[nH]c3cc(C(=O)N(C)[C@@H]4CCNC[C@H]4F)sc3c2C(C)C)cn2ncnc12 [Example 76]
6 | 9.36 | 8.45 | Cc1cc(-c2[nH]c3cc(C4CC4C(=O)N4CCNCC4)sc3c2C(C)C)cn2ncnc12 (centres unmarked) [Example 303]
7 | 9.10 | 8.39 | Cc1cc(-c2[nH]c3cc(C(=O)N4CCC5(CCN(CC(N)=O)C5)CC4)sc3c2C(C)C)cn2ncnc12 [Example 175]
8 | 7.28 | 7.08 | Cc1c(C(=O)N2CCC[C@@H]3NCC[C@@H]32)sc2c(C(C)C)c(-c3cc(C)c4ncnn4c3)[nH]c12 [Example 243]
9 | 9.30 | 7.89 | Cc1cc(-c2[nH]c3cc(C(=O)N4CCC[C@H](N)[C@@H]4C)sc3c2C(C)C)cn2ncnc12 [Example 87]
10 | 6.96 | 7.46 | Cc1cc(-c2[nH]c3cc(C(=O)N4CC[C@H](N)C4)sc3c2C(C)C)cc(C)n1 [Example 7]
11 | 9.25 | 7.98 | Cc1cc(-c2[nH]c3cc(C4CC5CCC(C4)N5CC(N)=O)sc3c2C(C)C)cn2ncnc12 (centres unmarked) [Example 299]
12 | 9.22 | 7.70 | Cc1cc(-c2[nH]c3cc(C(=O)N4CCC[C@@H]5NCC[C@@H]54)sc3c2C(C)C)cn2ncnc12 [Example 93]
13 | 9.30 | 8.77 | Cc1cc(-c2[nH]c3cc(C(=O)N4C[C@H](C)NC[C@H]4C)sc3c2C(C)C)cn2ncnc12 [Example 124]
14 | 9.09 | 8.25 | Cc1cc(-c2[nH]c3cc(C4CCNCC4(C)C)sc3c2C(C)C)cn2ncnc12 (centres unmarked) [Example 293]
15 | 9.70 | 9.00 | Cc1cc(-c2[nH]c3cc(C4CCC5(CC4)CN(CCO)C5)sc3c2C(C)C)cn2ncnc12 [Example 191]
16 | 9.00 | 8.11 | Cc1cc(-c2[nH]c3cc(C4CCN(C(=O)CN(C)C)CC4)sc3c2C(C)C)cn2ncnc12 [Example 181]
17 | 8.89 | 9.22 | Cc1cc(-c2[nH]c3cc(C(=O)N4CCNC(C)(C)C4)sc3c2C(C)C)cn2ncnc12 [Example 85]
18 | 8.60 | 9.52 | Cc1cc(-c2[nH]c3cc(C4CCN(C5CCC5)CC4)sc3c2C(C)C)cn2ncnc12 [Example 195]
19 | 7.39 | 7.17 | Cc1cc(-c2[nH]c3cc(C(=O)N4CCC5CC5(N)C4)sc3c2C(C)C)cc(C)n1 (centres unmarked) [Example 31]
20 | 9.10 | 9.22 | Cc1c(-c2[nH]c3cc(C(=O)N(C)C4CCN(C)CC4)sc3c2C(C)C)cn2ncnc2c1C [Example 151]
21 | 7.58 | 7.83 | Cc1cc(-c2[nH]c3cc(C(=O)N(C)C4CCN(CCC(F)(F)F)CC4)sc3c2C(C)C)cn2ncnc12 [Example 269, 6-isopropyl-N-methyl-5-(8-methyl-[1,2,4]triazolo[1,5-a]pyridin-6-yl)-N-[1-(3,3,3-trifluoropropyl)-4-piperidyl]-4H-thieno[3,2-b]pyrrole-2-carboxamide]
22 | 8.86 | 8.46 | Cc1nc2c(C)cc(-c3[nH]c4cc(C5CCN(CC(N)=O)CC5)sc4c3C(C)C)cn2n1 [Example 283]
23 | 9.22 | 9.15 | Cc1cc(-c2[nH]c3cc(-c4ccc5c(c4)CC(N)C5)sc3c2C(C)C)cn2ncnc12 (centres unmarked) [Example 227]
24 | 8.85 | 6.50 | Cc1c(C(=O)N(C)C2CCNCC2)sc2c(C(C)C)c(-c3cc(C)c4ncnn4c3)[nH]c12 [Example 241]
25 | 6.68 | 7.32 | Cc1cc(-c2[nH]c3cc(C(=O)N4CCNCC4c4ccc(C(F)(F)F)cc4)sc3c2C(C)C)cn2ncnc12 (centres unmarked) [Example 117]
